Experimental data as given in patent publication US20100310561A1, “NATRIURETIC FUSION PROTEINS” (BOEHRINGER INGELHEIM INTERNATIONAL GMBH, priority 2007, published 2010).
Where two headings read alike, the source gives them in different places.

Experiments:
human NPRA = molecular target: T1, human NPRA (Homo sapiens, UniProt P16066); test: Natriuretic peptide fusion protein induced cGMP assay, human NPRA transfected HEK293 cells; type: cell-based
T1 sequence (P16066 33-1061): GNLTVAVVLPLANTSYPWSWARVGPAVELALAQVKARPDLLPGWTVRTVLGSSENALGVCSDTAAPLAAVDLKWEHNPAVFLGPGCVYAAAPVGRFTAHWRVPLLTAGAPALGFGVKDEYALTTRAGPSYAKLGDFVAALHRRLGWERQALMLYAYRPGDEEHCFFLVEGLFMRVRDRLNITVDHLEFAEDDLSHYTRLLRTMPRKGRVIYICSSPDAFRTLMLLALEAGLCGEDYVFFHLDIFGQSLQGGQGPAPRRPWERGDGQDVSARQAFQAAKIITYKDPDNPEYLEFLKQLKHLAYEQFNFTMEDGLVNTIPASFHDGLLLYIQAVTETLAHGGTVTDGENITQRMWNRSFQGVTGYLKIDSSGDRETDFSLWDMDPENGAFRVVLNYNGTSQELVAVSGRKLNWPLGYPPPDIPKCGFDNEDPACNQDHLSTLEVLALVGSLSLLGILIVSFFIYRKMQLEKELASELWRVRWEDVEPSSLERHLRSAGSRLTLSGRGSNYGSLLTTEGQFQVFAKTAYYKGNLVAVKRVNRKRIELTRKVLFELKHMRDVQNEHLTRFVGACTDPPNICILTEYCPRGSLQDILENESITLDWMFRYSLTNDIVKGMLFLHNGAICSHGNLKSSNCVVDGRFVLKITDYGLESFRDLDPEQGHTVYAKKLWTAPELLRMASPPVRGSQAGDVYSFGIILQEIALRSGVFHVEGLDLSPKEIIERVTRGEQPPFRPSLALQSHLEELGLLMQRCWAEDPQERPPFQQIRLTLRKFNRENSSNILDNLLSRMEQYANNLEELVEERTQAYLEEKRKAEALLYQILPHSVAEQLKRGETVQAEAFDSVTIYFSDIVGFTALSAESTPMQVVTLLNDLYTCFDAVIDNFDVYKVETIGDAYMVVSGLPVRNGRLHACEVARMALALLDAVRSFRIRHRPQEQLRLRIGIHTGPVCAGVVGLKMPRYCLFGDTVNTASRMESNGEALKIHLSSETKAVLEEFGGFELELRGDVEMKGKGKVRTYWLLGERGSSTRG
Description: Full-length human NPRA, human NPRB, and human […] (NPRC) sequence containing plasmids were purchased from OriGene Technologies, Inc. (Rockville, Md.) then sub-cloned into pcDNA3.1 directional mammalian expression vector (Invitrogen). Insert orientation and nucleotide sequence of each construct was verified by an outside vendor (SeqWright, Inc.). The pcDNA3.1 NPR clones were transfected using Lipofectamine (Invitrogen) into HEK293 cells where stable cell lines expressing human NPRA, human NPRB, or human NPRC are selected using G418. Clones were screened using the natriuretic peptide induced cGMP assay described below. (NPRA clones were treated with human ANP while NPRB clones were treated with human CNP (Sigma)). High cGMP producing clones were expanded. NPRC clones were screened using a ^125I ANP binding assay. ^125I ANP high binders were expanded. […]
Natriuretic peptides of >95% HPLC purity were obtained from Sigma. […] The cGMP concentration was measured using the HitHunter™ cGMP Assay Kit (DiscoveRx Corporation). cGMP production dose response curves were generated with a four parameter logistic equation fitted using the Levenburg Marquardt algorithm in XLfit4.2 data analysis software (ID Business Solutions, Ltd.).
Results 1 from both Labs 1 and 2 were generated by interpreting the raw Relative Luminescence Units (RLU). […]

Dog NPRA = test: cGMP assay, canine NPRA expressing 293 cells; type: cell-based
Protocol: (§1) Natriuretic peptides of >95% HPLC purity were obtained from Sigma. HEK293 NPRA cells grown to 90% confluence were harvested using HANKS based Cell Dissociation Medium (GIBCO). Cells were washed and resuspended at 3.3×10^5 cells per mL in pre warmed Dulbecco's PBS, pH 7.4, 25 mM HEPES, 0.1% BSA, 500 μM 3-Isobutyl-1-methylxanthine (IBMX) [Assay Buffer]. Assays were performed in Optiplate-96 White Opaque 96-well Microplates (Perkin Elmer). 15 μL of cell suspension is added to 15 μL of 2× fusion protein in Assay Buffer in triplicate and incubated for 20 minutes at 37° C. The cGMP concentration was measured using the HitHunter™ cGMP Assay Kit (DiscoveRx Corporation). cGMP production dose response curves were generated with a four parameter logistic equation fitted using the Levenburg Marquardt algorithm in XLfit4.2 data analysis software (ID Business Solutions, Ltd.).
Human ANP28 peptide was assayed for cGMP production in species specific NPRA transfected 293 or 293T cells. Dose response curves for cGMP production stimulated by human ANP28 peptide in rat NPRA (rNPRA) expressing 293T cells and human NPRA (hNPRA) and canine NPRA (caNPRA) expressing 293 cells are shown in FIG. 2.
The selectivity of the recombinant ANP-Fc fusion proteins was assessed by analyzing their efficacy in NPRB expressing cell lines. […]

Monkey NPRA = test: cGMP assay, monkey NPRA expressing HEK293 cells; type: cell-based; details: Table 4
Protocol: as §1
The selectivity of the recombinant ANP-Fc fusion proteins was assessed by analyzing their efficacy in NPRB expressing cell lines. The species cross-reactivity of the ANP-Fc fusion proteins was tested in rat, canine, and monkey NPRA expressing HEK293 cell lines. The ANP-Fc fusions tested have good cross-reactivity in the rat, canine, and monkey NPRA mediated cGMP assays (Table 4). The ANP-Fc fusion proteins have nearly equivalent dose response values when tested in human, dog and monkey expressing NPRA cells. […]

[1] = humans; Potter et al.; cited from earlier work

In the case of “Wild-type rat ANP: rat atrial natriuretic peptide, differs from human ANP by one amino acid (SLRRSSCFGGRIDRIGAQSGLGCNSFRY) [reference compound]”, the “EC50 compared with human ANP in the human NPRA cGMP assay” value (human NPRA) is reported as “slightly higher”.
`CC[C@H](C)[C@@H]1NC(=O)[C@H](CCCNC(=N)N)NC(=O)[C@H](CC(=O)O)NC(=O)[C@H](CCSC)NC(=O)[C@H](CCCNC(=N)N)NC(=O)CNC(=O)CNC(=O)[C@H](Cc2ccccc2)NC(=O)[C@@H](NC(=O)[C@H](CO)NC(=O)[C@H](CO)NC(=O)[C@H](CCCNC(=N)N)NC(=O)[C@H](CCCNC(=N)N)NC(=O)[C@H](CC(C)C)NC(=O)[C@@H](N)CO)CSSC[C@@H](C(=O)N[C@@H](CC(N)=O)C(=O)N[C@@H](CO)C(=O)N[C@@H](Cc2ccccc2)C(=O)N[C@@H](CCCNC(=N)N)C(=O)N[C@@H](Cc2ccc(O)cc2)C(=O)O)NC(=O)CNC(=O)[C@H](CC(C)C)NC(=O)CNC(=O)[C@H](CO)NC(=O)[C@H](CCC(N)=O)NC(=O)[C@H](C)NC(=O)CNC1=O` [Construct 1, ANPXY] showed an EC50 (Dog NPRA; Table 4, read-out: cGMP EC50 (nM) Dog NPRA) of 1.3 nM, an EC50 (Dog NPRA; caNPRA 293 cells, read-out: Mean EC50 nM, cGMP-caNPRA 293) of 1.34 nM and an EC50 (Monkey NPRA) of 0.5 nM.
In the case of BNP: B-type natriuretic peptide, the plasma half life [1] is listed as “approximately 20 minutes”.
